Results taken from patent US20260000708A1, “Copper Hydrogel Beads as a Diet Supplement” (Texas Tech University System, priority 2021, published 2026).

Test system: Salmonella
Assay: Time-release formulation compared to copper sulfate alone against Salmonella cells in vitro
Assay type: cell-based
Conditions: after application (FIG. 3)

## O=S(=O)([O-])[O-].[Cu+2] [copper sulfate]
  Duration of effectiveness against Salmonella: only effective for a short time
